Laboratory results as given in PubChem BioAssay (NCI).
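How tested: cells in 96-well plates exposed to compound for 48 hours at five concentrations. GI50 is the concentration that inhibits growth by half. TGI denotes the concentration required for complete inhibition of growth.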

What was measured:
Experiment in all cases: NCI tumour cell line growth inhibition, 48 h
T-47D breast = system: T-47D breast
MDA-N = system: MDA-N
SNB-78 CNS = system: SNB-78 CNS
LXFL 529 NSCLC = system: LXFL 529 NSCLC
P388 leukemia = system: P388 leukemia
SN12K1 renal = system: SN12K1 renal
P388/ADR leukemia = system: P388/ADR leukemia
786-0 renal = system: 786-0 renal

Structure (SMILES) | TGI (T-47D breast) [µM] | TGI (MDA-N) [µM] | TGI (SNB-78 CNS) [µM] | also measured
CCOC(=O)c1sc2nc(SC)nc(Nc3ccc4c(c3)OCCO4)c2c1N | 26.2 | > 100 |  | 
Nc1nc(SCc2ccccc2Cl)c2[nH]cnc2n1 |  |  | > 100 | TGI (LXFL 529 NSCLC): > 100 µM
CNC(C)C(O)c1ccc2oc3cc(=O)c4ccccc4c-3nc2c1 (stereo unspecified) | 98.4 |  |  | 
COc1ccc(C2COc3c(ccc(O)c3C)C2)cc1OC (stereo unspecified) |  |  | > 200 | TGI (P388 leukemia): > 125 µM; TGI (SN12K1 renal): 154 µM; TGI (P388/ADR leukemia): > 113 µM
CCCn1cnc2c(SCc3ccc(Cl)cc3)nc(N)nc21 | > 100 | 55 |  | TGI (786-0 renal): > 100 µM
CN(C)CCNC(=O)c1cccc2[nH]c(-c3ccccn3)nc12 |  |  | > 100 | TGI (P388 leukemia): 34.7 µM; TGI (SN12K1 renal): > 100 µM; TGI (P388/ADR leukemia): 53.5 µM
Cc1nc2ccc(S(=O)(=O)Nc3nccs3)cc2c(=O)n1NS(=O)(=O)c1nccs1 | > 100 | > 100 |  | 
COc1ccc(/C=N/n2cnc3c(c2=O)SC(=C(C#N)C#N)N3c2ccccc2)cc1 |  |  |  | TGI (LXFL 529 NSCLC): > 100 µM
O=C(N[C@@H](Cc1coc2ccccc12)B(O)O)[C@@H]1C[C@H]2CC[C@@H]1O2 | > 100 |  |  | GI50 (T-47D breast): 2770 nM
